Experimental data: patent publication US9226911B2, “Method of reducing weight using composition containing fucoxanthin extract” (BEIJING GINGKO GROUP BIOLOGICAL TECHNOLOGY CO., LTD., priority 2009, dated 2016)
Marks after values point to notes of the source that are not given here.

Columns and labels:
[1] = test system: model rats with alimentary obesity; experiment: Example 4: body weight of rats with high-fat-feed alimentary obesity, 30 d intragastric administration; assay type: in vivo, SD rats; conditions: x ± s; for Body weight (g) (after experiment): after 30 d intragastric; for Body weight (g) (before experiment): baseline after 1 month high-fat feed, 10 rats per group
Experimental: (§1) Test substances: Formulations are prepared according to the ratios shown in Table 4 Formulations for feeding animals: high-fat feed is composed of 80% basic feed, 10% lard and 10% yolk powder.
(§2) Grouping and treatment of the test animals: 80 grown-up male healthy SD clean grade rats (body weight 180-210 g) are adaptively fed with basic feed for a week, 10 are used as basic feed control, the rest are fed with high-fat feed. A month later, the group of rats fed with high-fat feed is randomly grouped into 7 groups according to their weights, 10 in each group: model control, fucoxanthin (A), tocotrienols(B), fucoidan(C), composition A+B+C, composition A+B and composition A+C. The group of basic feed keeps on feeding with basic feed, the rest groups are fed with high-fat feeds. The groups of basic feed and model control are intragastrically administrated with distilled water, the rest groups are intragastrically administrated with tested medicines, all administrated for 30 d. The groups of animals are raised in different cages in rooms with the temperature conditioned at (22±2) ° C. and under natural illumination. The rats take food and water freely. Each week, their body weights are measured and the amounts of food they take are observed and recorded. They are weighted after feeding for 30 d.
(§3) Statistical analysis: the variance from the data collected in this experiment is analyzed with SAS package, Dunnett's t test is used to compare statistically the results from different groups, the results of P<0.05 is decided as statistically significant.

[2] = test system: model rats with alimentary obesity; experiment: Example 6: fat pads around the testicles in model rats with alimentary obesity; assay type: in vivo, SD rats; conditions: x ± s, 30 days, A 362.5 μg, B 18.12 μg, C 9.06 mg
Experimental: as §1, §2, §3
The procedure was the same as in Example 4. After feeding for 30 days and weighing, executing all the rats, the fat pads around the testicles were peeled off and weighed accurately. Statistical analysis was carried out as in Example 4.

test subjects = experiment: Example 8: clinic intake trial, body weight and abdomen fat areas by CT; assay type: in vivo, human
From the text: To examine the weight reducing effect of fucoxanthin composition by means of random control method, 20 eligible test subjects of the age of 20 to 50 were divided into 5 groups, A+B+C, A+C, A+B, A, B+C, with random figure table method. The number of the subjects in each group was n=4. The daily doses of the medicines taken by the subjects were according to Table 12. Apart from being administrated with each of the different tested medicines at the breakfast time according to the set way of taking the medicine, other normal life style and dietetic habit of the subjects were not changed. No low-calorie food recipe was required, no restriction to the food and drink was executed and no extra physical training was carried out. To examining the effect of sampling of the medicine, the subjects were respectively examined before sampling of the medicine and 1 month, 2 and 3 months after the sampling. That is, the bodyweight, waist- and hiplines, blood sugar and blood fat were measured, abdomen CT scanning was carried out and so on. The subjects were periodically followed-up to find out the experiences and to supervise and guarantee compliance of the customers in taking the medicine. For the test, those suffered from serious metabolic diseases that need medicinal control and those taken other weight reducing products had been excluded.
Abdomen fat areas were measured with CT • Instrument: CT Model Pronto; Hitachi, Japan. • 120 kV, 175 mA • Layer thickness of the scanning: 10 mm • Scanning in the umbilical cross-section • Attenuation of the adipose tissue: −250˜−50 HU (CT Unit) • Calculation of the fat areas: total abdomen fat, visceral- and subcutaneous fat (mm^2)
Using CT Scanning, total fat—as well as visceral fat areas were marked out across the umbilical cross-section, the areas were measured respectively, the area of subcutaneous fat was obtained as the difference of both areas.

[3] = test system: model rats with alimentary obesity; experiment: Example 7: fat pads around the kidneys in model rats with alimentary obesity; assay type: in vivo, SD rats; conditions: x ± s; 30 d; A 181.23 μg, B 398.7 μg, C 1.81 mg
Experimental: as §1, §2, §3
The procedure was the same as in Example 4. After feeding for 30 d and weighing, executing all the rats, the fat pads around the kidneys were taken out and weighed accurately. Statistical analysis was carried out as in Example 4.

[4] = test system: model rats with alimentary obesity; experiment: Example 5: abdomen fat in model rats with alimentary obesity; assay type: in vivo, SD rats; conditions: x ± s, 30 d, A 9.06 μg, B 36.25 μg, C 18.12 mg (A + B: A 36.25 μg [sic])
Experimental: as §1, §2, §3
The procedure was the same as in Example 4. After feeding for 30 d and weighing, executing all the rats, the abdomen fat was peeled off and weighed accurately. Statistical analysis was carried out as in Example 4

[5] = per rat A 36.25 μg, B 36.25 μg, C 0.4 mg
[6] = over 30 d intragastric, per rat A 36.25 μg, B 36.25 μg, C 0.4 mg
[7] = n = 4, after vs before, daily dose A 2 mg, B 2 mg, C 22 mg
[8] = x ± s, n = 4, CT, oral daily dose A 2 mg, B 2 mg, C 22 mg

Substance: fucoxanthin
- Body weight (g) (after experiment) [1, 5]: 530.18 ± 20.32Δ g
- Body weight (g) (before experiment) [1]: 486.50 ± 22.10 g
- Weight increased(g) [1, 6]: 43.68 ± 19.13Δ g
- Body weight (g) (after experiments) [2]: 530.18 ± 20.32 g
- Fat pad weight around the testicles (g) [2]: 7.32 ± 0.83Δ g
- Fat pad weight around the testicles/body weight [2]: 1.38 ± 0.11Δ
- effects compared with B+C group (test subjects; clinic trial, P<0.05): more significant than B+C group
- The area of subcutaneous fat, Decrease (%) (test subjects; [7]): 6.10%
- The area of visceral fat, Decrease (%) (test subjects; [7]): 4.20%
- Total abdomen fat area, decrease (test subjects; [7]): 5.68%
- Body weight Change: decrease by (test subjects; n = 4, oral daily dose A 2 mg, B 2 mg, C 22 mg, after vs before): by 1.5%
- The area of subcutaneous fat, Before clinic experiment (test subjects; x ± s, n = 4, CT, difference of total and visceral fat areas, baseline): 15514 ± 1192 mm^2
- The area of subcutaneous fat, After clinic experiment (test subjects; x ± s, n = 4, CT, difference of total and visceral fat areas, daily dose A 2 mg, B 2 mg, C 22 mg): 14568 ± 1225* mm^2
- Total abdomen fat area, Before clinic experiment (test subjects; x ± s, n = 4, CT, umbilical cross-section, baseline): 36555 ± 1645 mm^2
- The area of visceral fat, Before clinic experiment (test subjects; x ± s, n = 4, CT, baseline): 17380 ± 1185 mm^2
- The area of visceral fat, After clinic experiment (test subjects; [8]): 16650 ± 1484* mm^2
- Total abdomen fat area, After clinic experiment (test subjects; [8]): 34479 ± 1475 mm^2
- Body weight, Before clinic experiment (test subjects; x ± s, n = 4, baseline): 68.4 ± 0.13 kg
- Body weight, After clinic experiment (test subjects; x ± s, n = 4, oral daily dose A 2 mg, B 2 mg, C 22 mg): 67.37 ± 0.11 kg
- Body weight (g) (after experiments) [3]: 530.18 ± 20.32 g
- Total weight of fat pads around the kidneys (g) [3]: 7.42 ± 0.60Δ g
- Total weight of fat pads around the kidneys/body weight [3]: 1.42 ± 0.12Δ
- Abdomen fat (g) [4]: 9.58 ± 1.99Δ g
- Body weight (g) (after experiment) [4]: 530.18 ± 20.32 g
- Weight of abdomen fat/body weight [4]: 1.81 ± 0.13Δ

Substance: fucoidan
- Body weight (g) (after experiment) [1, 5]: 546.59 ± 18.64 g
- Body weight (g) (before experiment) [1]: 486.69 ± 21.12 g
- Weight increased [1, 6]: 59.90 ± 18.11 g
- Body weight (g) (after experiments) [2]: 546.59 ± 18.64 g
- Fat pad weight around the testicles [2]: 9.11 ± 0.48 g
- Fat pad weight around the testicles/body weight ([2]; in % (unit assumed)): 1.67 ± 0.13
- Body weight (g) (after experiments) [3]: 546.59 ± 18.64 g
- Total weight of fat pads around the kidneys [3]: 9.29 ± 0.61 g
- Total weight of fat pads around the kidneys/body weight [3]: 1.70 ± 0.13
- Abdomen fat [4]: 12.99 ± 1.23 g
- Body weight (g) (after experiment) [4]: 546.59 ± 18.64 g
- Weight of abdomen fat/body weight ([4]; in % (unit assumed)): 2.38 ± 0.13
